Results: article PMC8922279, “Identification of β-Lactams Active against Mycobacterium tuberculosis by a Consortium of Pharmaceutical Companies and Academic Institutions” (ACS Infectious Diseases, 2022)

Tests used:
Mtb H37Rv [1] = assay: MIC90 against replicating (R) Mtb H37Rv, with or without clavulanate; type: cell-based, Mycobacterium tuberculosis; settings: Table S4; for Mtb H37Rv R + CLAV (MIC90): clavulanate 4 μg/mL; for Mtb H37Rv R (MIC90): no clavulanate
Mtb H37Rv [2] = assay: MIC90 against nonreplicating (NR, 4-stress) Mtb H37Rv, with or without clavulanate; type: cell-based, Mycobacterium tuberculosis; settings: 4-stress nonreplicating, Table S4; for Mtb H37Rv NR + CLAV (MIC90): clavulanate 4 μg/mL; for Mtb H37Rv NR (MIC90): no clavulanate
E. coli = assay: Microbial spectrum, E. coli; type: cell-based, Escherichia coli; settings: clavulanate 4 μg/mL; Table S4
P. aeruginosa = assay: Microbial spectrum, P. aeruginosa; type: cell-based, Pseudomonas aeruginosa; settings: clavulanate 4 μg/mL; Table S4
S. aureus = assay: Microbial spectrum, S. aureus; type: cell-based, Staphylococcus aureus; settings: clavulanate 4 μg/mL; Table S4
C. albicans = assay: Microbial spectrum, C. albicans; type: cell-based, Candida albicans; settings: no clavulanate; Table S4
[3] = In vitro plasma stability, human plasma; settings: 37 °C, time point 120 min; for Plasma stability % Remaining, Human: 2 μM
[4] = In vitro plasma stability, SD rat plasma; settings: 37 °C, time point 120 min; for Plasma stability % Remaining, Rat: 2 μM
[5] = Stability in simulated gastric fluid (SGF); settings: for SGF Stability, % remaining, 1h / SGF Stability, % remaining, 24h: 10 μM, pH 1.2, room temperature
[6] = In vitro plasma stability, CD-1 mouse plasma; settings: 37 °C, time point 120 min; for Plasma stability % Remaining, Mouse: 2 μM
[7] = In vitro plasma stability, beagle dog plasma; settings: for Plasma stability % Remaining, Dog: 2 μM, 37 °C, time point 120 min
Caco-2 cells = assay: Caco-2 permeability / efflux transporter substrate; settings: for Caco-2 Mean Papp A to B / Caco-2 Mean Papp B to A: 3 μM, pH 7.4, 120 min; for Caco-2 Efflux Ratio / Caco-2 Mean Recovery % A to B / Caco-2 Mean Recovery % B to A / Caco-2 Rank Papp / Efflux Transporter Substrate: Caco-2
[8] = In vitro plasma stability, cynomolgus monkey plasma; settings: for Plasma stability % Remaining, Monkey: 2 μM, 37 °C, time point 120 min
plasma proteins [9] = assay: Plasma protein binding (equilibrium dialysis), human; settings: 2 μM
plasma proteins [10] = assay: Plasma protein binding (equilibrium dialysis), SD rat; settings: 2 μM
[11] = Stability in fasted simulated intestinal fluid (FaSSIF); settings: pH 6.5, room temperature; for FaSSIF Stability, % remaining, 6h / FaSSIF Stability, % remaining, 24h: 10 μM
plasma proteins [12] = assay: Plasma protein binding (equilibrium dialysis), beagle dog; settings: 2 μM
plasma proteins [13] = assay: Plasma protein binding (equilibrium dialysis), CD-1 mouse; settings: 2 μM
plasma proteins [14] = assay: Plasma protein binding (equilibrium dialysis), cynomolgus monkey; settings: 2 μM
[15] = Caco-2 permeability / efflux transporter substrate; settings: human
[16] = simulated gastric fluid (SGF), pH 1.2

| SMILES | Mtb H37Rv R + CLAV (MIC90) (Mtb H37Rv [1]) | Mtb H37Rv R (MIC90) (Mtb H37Rv [1]) | Mtb H37Rv NR + CLAV (MIC90) (Mtb H37Rv [2]) | Mtb H37Rv NR (MIC90) (Mtb H37Rv [2]) | E.coli R + CLAV (MIC90) (E. coli) | P.aeruginosa R + CLAV (MIC90) (P. aeruginosa) | S.aureus R + CLAV (MIC90) (S. aureus) | C.albicans R (MIC90) (C. albicans) | SGF Stability, % remaining, 1h [5] | SGF Stability, % remaining, 24h [5] | Caco-2 Mean Papp A to B (Caco-2 cells) | Caco-2 Mean Papp B to A (Caco-2 cells) | Caco-2 Mean Recovery % A to B (Caco-2 cells) | Caco-2 Mean Recovery % B to A (Caco-2 cells) | Caco-2 Rank Papp (Caco-2 cells) | % bound to plasma, Human (plasma proteins [9]) | % bound to plasma, SD Rat (plasma proteins [10]) | % bound to plasma, Beagle Dog (plasma proteins [12]) | % bound to plasma, CD-1 Mouse (plasma proteins [13]) | % bound to plasma, Cynomolgus Monkey (plasma proteins [14]) | other results |
| --- | --- | --- | --- | --- | --- | --- | --- | --- | --- | --- | --- | --- | --- | --- | --- | --- | --- | --- | --- | --- | --- |
| NCc1ccccc1CC(=O)N[C@@H]1C(=O)N2C(C(=O)O)=C(CSc3nnnn3CCO)CS[C@H]12 [TBBL-0000656] | 2.1 µM | 5.8 µM | > 100 µM | > 100 µM | 9.8 µM | > 100 µM | > 100 µM | > 100 µM | 87.12% | 53.93% | < 0.12 10-6 cm/s | 0.27 10-6 cm/s | < 102.47% | 106.09% | Low | 23.3% | 50.2% | 11.2% | 23.0% | 22.0% | Plasma stability % Remaining, Human [3]: 75.1%; Plasma stability % Remaining, Rat [4]: 85.1%; Plasma stability % Remaining, Mouse [6]: 95.0%; Plasma stability % Remaining, Dog [7]: 74.7%; Caco-2 Efflux Ratio (Caco-2 cells): > 2.26; Efflux Transporter Substrate (Caco-2 cells): Likely; Plasma stability % Remaining, Monkey [8]: 85.7%; FaSSIF Stability, % remaining, 6h [11]: 89.32%; FaSSIF Stability, % remaining, 24h [11]: 70.9% |
| CC(=O)OCC1=C(C(=O)O)N2C(=O)[C@@H](NC(=O)CSc3ccncc3)[C@H]2SC1 [TBBL-0000063] | 1.9 µM | 13.1 µM | > 100 µM | > 100 µM | > 100 µM | > 100 µM | 0.8 µM | > 100 µM | 87.31% | 27.14% | < 0.41 10-6 cm/s | < 0.37 10-6 cm/s | < 87.73% | < 102.87% | Low | 38.7% | 42.4% | 27.8% | 14.7% | 0.0% | FaSSIF Stability, % remaining, 6h [11]: 102.47%; FaSSIF Stability, % remaining, 24h [11]: 62% |
| Cn1nnnc1SCC1=C(C(=O)O)N2C(=O)[C@@H](NC(=O)Cc3ccc(C4=NCCCN4)cc3)[C@H]2SC1 [TBBL-0000309] | 0.7 µM | 29.6 µM | > 100 µM | > 100 µM | 20.6 µM | > 100 µM | 1.8 µM | > 100 µM | 103.51% | 60.13% | 0.18 10-6 cm/s | 0.38 10-6 cm/s | 99.65% | 104.93% | Low | 24.6% | 38.2% | 0.0% | 4.1% | 29.4% | Plasma stability % Remaining, Human [3]: 79.0%; Plasma stability % Remaining, Rat [4]: 79.8%; Plasma stability % Remaining, Mouse [6]: 68.8%; Plasma stability % Remaining, Dog [7]: 77.8%; Caco-2 Efflux Ratio (Caco-2 cells): 2.12; Efflux Transporter Substrate (Caco-2 cells): Likely; Plasma stability % Remaining, Monkey [8]: 104.7%; FaSSIF Stability, % remaining, 6h [11]: 95.78%; FaSSIF Stability, % remaining, 24h [11]: 77.15% |
| CCCc1nnc(SCC2=C(C(=O)O)N3C(=O)[C@@H](NC(=O)Cc4ccc(C(=N)N)cc4)[C@H]3SC2)s1 [TBBL-0000314] | 0.8 µM | 14.1 µM | > 100 µM | > 100 µM | > 100 µM | > 100 µM | 1.6 µM | > 100 µM | 76.41% | 1.85% | < 0.07 10-6 cm/s | < 0.06 10-6 cm/s | < 94.56% | < 107.68% | Low | 65.7% | 84.6% | 46.7% | 67.9% | 60.1% | Plasma stability % Remaining, Human [3]: 77.2%; Plasma stability % Remaining, Rat [4]: 73.3%; Plasma stability % Remaining, Mouse [6]: 76.2%; Plasma stability % Remaining, Dog [7]: 77.0%; Plasma stability % Remaining, Monkey [8]: 103.9%; FaSSIF Stability, % remaining, 6h [11]: 101.85%; FaSSIF Stability, % remaining, 24h [11]: 95.17% |
| CON=C(C(=O)N[C@@H]1C(=O)N2C(C(=O)O)=C(CSc3cccc[n+]3[O-])CS[C@H]12)c1csc(N)n1 [TBBL-0000539] | 1.9 µM | 2 µM | 4.6 µM | 4.7 µM | 13.1 µM | > 100 µM | 17.3 µM | > 100 µM | 104.45% | 90.77% | < 0.10 10-6 cm/s | 0.31 10-6 cm/s | < 96.40% | 105.53% | Low | 56.9% | 61.3% | 5.2% | 20.9% | 84.3% | Plasma stability % Remaining, Human [3]: 83.4%; Plasma stability % Remaining, Rat [4]: 98.2%; Plasma stability % Remaining, Mouse [6]: 92.4%; Plasma stability % Remaining, Dog [7]: 79.7%; Caco-2 Efflux Ratio (Caco-2 cells): > 3.03; Efflux Transporter Substrate (Caco-2 cells): Likely; Plasma stability % Remaining, Monkey [8]: 120.8% |
| CNCc1ccccc1CC(=O)N[C@@H]1C(=O)N2C(C(=O)O)=C(CSc3nnnn3C)CS[C@H]12 [TBBL-0000468] | 5.4 µM | 16.4 µM | > 100 µM | > 100 µM | > 100 µM | > 100 µM | 8.7 µM | > 100 µM | 101.42% | 49.27% | < 0.25 10-6 cm/s | < 0.21 10-6 cm/s | < 102.74% | < 109.10% | Low | 21.1% | 39.1% | 7.3% | 1.7% | 21.9% | Plasma stability % Remaining, Human [3]: 73.6%; Plasma stability % Remaining, Rat [4]: 80.8%; Plasma stability % Remaining, Mouse [6]: 72.0%; Plasma stability % Remaining, Dog [7]: 77.2%; Plasma stability % Remaining, Monkey [8]: 101.7%; FaSSIF Stability, % remaining, 6h [11]: 83.23%; FaSSIF Stability, % remaining, 24h [11]: 56.36% |
| C[C@@H](O)[C@H]1C(=O)N2C(C(=O)O)=C(S[C@@H]3CN[C@H](C(=O)Nc4cccc(C(=O)O)c4)C3)[C@H](C)[C@H]12 [Ertapenem, reference compound] | – | – | – | – | – | – | – | – | – | – | – | – | – | – | Low | – | – | – | – | – | remaining at 2 h, 2 μM ([3]; human, plasma, Plasma stability % Remaining): 77.5%; remaining at 2 h, 2 μM ([4]; SD, rat, plasma, Plasma stability % Remaining): 69.1%; remaining at 1 h, 10 μM [5, 16]: 0%; remaining at 24 h, 10 μM [5, 16]: 0%; remaining at 2 h, 2 μM ([6]; male, CD-1, mouse, plasma, Plasma stability % Remaining, Mouse): 74.2%; remaining at 2 h, 2 μM ([7]; beagle, dog, plasma): 70.7%; Papp A→B at 120 min, 3 μM ([15]; Caco-2, pH 7.4): < 0.23 ×10⁻⁶ cm/s; Papp B→A at 120 min, 3 μM ([15]; Caco-2, pH 7.4): < 0.21 ×10⁻⁶ cm/s; recovery at 120 min, 3 μM ([15]; Caco-2, pH 7.4, Caco-2 Mean Recovery % A to B): < 116%; recovery at 120 min, 3 μM ([15]; Caco-2, pH 7.4, Caco-2 Mean Recovery % B to A): < 112%; remaining at 2 h, 2 μM ([8]; monkey, plasma): 115%; remaining at 6 h, 10 μM ([11]; fasted simulated intestinal fluid (FaSSIF), pH 6.5, FaSSIF Stability, % remaining, 6h): 86.8%; remaining at 24 h, 10 μM ([11]; fasted simulated intestinal fluid (FaSSIF), pH 6.5, FaSSIF Stability, % remaining, 24h): 85.8% |
